Assay results as given in article PMC6572293, “Antihypertensive Effects of Corn Silk Extract and Its Novel Bioactive Constituent in Spontaneously Hypertensive Rats: The Involvement of Angiotensin-Converting Enzyme Inhibition” (Molecules, 2019).
Like-named read-outs stand apart in the source and are kept apart here. Peptide text beside a SMILES is read from it.

Assays:
[1] = molecular target: T1, ACE (serum) (Mus musculus, UniProt P09470); assay: ACE activity assay, Z-FHL substrate; format: biochemical, mouse (BALB/c serum); settings: various concentrations
T1 construct: Mouse sera collected from normal BALB/c mice were used as the source of soluble somatic ACE; from tissue; host or cells: serum of normal BALB/c mice
T1 sequence (P09470 35-1237 limits assumed): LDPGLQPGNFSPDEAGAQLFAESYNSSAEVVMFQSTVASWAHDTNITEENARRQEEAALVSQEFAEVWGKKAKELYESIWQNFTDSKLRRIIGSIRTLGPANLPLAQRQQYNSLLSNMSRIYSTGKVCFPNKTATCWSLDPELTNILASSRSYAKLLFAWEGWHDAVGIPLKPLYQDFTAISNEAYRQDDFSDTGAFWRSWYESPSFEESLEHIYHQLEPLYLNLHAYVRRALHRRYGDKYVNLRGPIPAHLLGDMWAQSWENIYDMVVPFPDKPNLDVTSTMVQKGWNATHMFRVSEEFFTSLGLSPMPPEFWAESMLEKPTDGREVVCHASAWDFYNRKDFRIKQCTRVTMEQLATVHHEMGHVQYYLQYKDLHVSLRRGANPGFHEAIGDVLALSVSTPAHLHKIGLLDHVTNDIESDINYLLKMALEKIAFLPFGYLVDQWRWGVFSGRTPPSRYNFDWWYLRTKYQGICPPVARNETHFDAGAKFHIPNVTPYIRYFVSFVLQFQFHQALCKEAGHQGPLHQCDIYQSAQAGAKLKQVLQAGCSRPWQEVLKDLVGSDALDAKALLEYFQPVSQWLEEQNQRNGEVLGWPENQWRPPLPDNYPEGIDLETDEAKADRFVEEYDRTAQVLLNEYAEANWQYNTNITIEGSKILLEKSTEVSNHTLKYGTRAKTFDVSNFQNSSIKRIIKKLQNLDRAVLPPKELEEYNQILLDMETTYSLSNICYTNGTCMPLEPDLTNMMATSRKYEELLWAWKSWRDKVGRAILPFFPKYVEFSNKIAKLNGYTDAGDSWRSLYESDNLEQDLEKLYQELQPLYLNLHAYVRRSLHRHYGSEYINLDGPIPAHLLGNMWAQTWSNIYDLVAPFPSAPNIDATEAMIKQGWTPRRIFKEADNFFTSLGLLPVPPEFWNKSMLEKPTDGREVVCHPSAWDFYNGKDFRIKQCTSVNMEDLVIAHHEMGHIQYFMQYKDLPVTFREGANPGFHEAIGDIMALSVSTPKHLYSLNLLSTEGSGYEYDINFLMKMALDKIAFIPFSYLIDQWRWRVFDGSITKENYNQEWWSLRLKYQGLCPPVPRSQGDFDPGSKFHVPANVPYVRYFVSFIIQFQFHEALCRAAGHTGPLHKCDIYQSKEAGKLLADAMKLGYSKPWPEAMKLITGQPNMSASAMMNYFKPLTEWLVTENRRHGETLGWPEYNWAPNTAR
Experimental: (§1) Various amounts of CSBp5 were mixed with mouse sera in the presence of H-HL or Z-FHL substrate, and the ACE activity was determined by measuring the fluorescence-labeled hydrolyzed substrates.
(§2) ACE activity assay was performed as described previously with a slight modification. Mouse sera collected from normal BALB/c mice were used as the source of soluble somatic ACE. ACE activity in mouse serum was determined as described previously. […] To correct the intrinsic fluorescence of mouse serum, blank was performed according to the aforementioned procedures without inhibitors.

[2] = system: SHRs; assay: Tail diastolic blood pressure in spontaneously hypertensive rats; format: in vivo, rat (male SHR); settings: SHR, oral, various dosages of CSBp5, 0 and 1 h; n = 6
Experimental: Male SHRs (200–250 g, 10 week-old) were purchased from National Laboratory Animal Center (Taipei, Taiwan). Rats were maintained under a 12 h day/12 h night cycle and had free access to water and food. Rat experiments were conducted under ethics approval from China Medical University Animal Care and Use Committee (Permit No. 104-75-N).
(§3) SHRs with tail SBP ≥ 180 mmHg were randomly divided into five groups with six rats per group. Rats were given intraperitoneally or orally with 400 μL of distilled water (blank), captopril (Catalog No. C4042), or various dosages of CSE or peptide (dissolved in water). SBP was measured by a tail-cuff apparatus (Non-Invasive Blood Pressure System, Panlab, Barcelona, Spain). Rats were placed in a warm holder kept at 37 ± 1 °C for 10 min before the measurement. Changes in SBP were calculated by subtracting SBP at indicated time point from SBP at 0 h.
Antihypertensive Effects of Corn Silk Extract and
Its Novel Bioactive Constituent in Spontaneously
Hypertensive Rats: The Involvement of
Angiotensin-Converting Enzyme Inhibition
Chia-Cheng Li 1, Yu-Chen Lee 2,3, Hsin-Yi Lo 1, Yu-Wen Huang 4, Chien-Yun Hsiang 5,* and […]
μmol/kg captopril or various dosages of CSBp5. Tail diastolic blood pressure was measured
at 0 and 1 h. Data are expressed as diastolic blood pressure (mmHg) (top panel) or changes in […]

[3] = molecular target: T1, ACE (serum); assay: ACE activity assay, H-HL substrate; format: biochemical, mouse (BALB/c serum)
Experimental: as §1, §2

[4] = system: spontaneously hypertensive rats (SHRs); assay: Tail-cuff systolic blood pressure in spontaneously hypertensive rats; format: in vivo, rat (male SHR); settings: SHR; for Decrease of SBP, intraperitoneal: 1 h after injection
Experimental: as §3, with “Male SHRs (200–250 g, 10 week-old) were purchased from National Laboratory Animal Center (Taipei, Taiwan). Rats were maintained under a 12 h day/12 h night cycle and had free access to water and food. Rat experiments were conducted under ethics approval from China Medical University Animal Care and Use Committee (Permit No. 104-75-N). SHRs” for “SHRs”

[5] = system: ACE N-domain; settings: ACE N-domain selective inhibitor; cited from earlier work
Source text: Somatic ACE is composed of two similar catalytic domains (N- and C-domains).

[6] = system: healthy human subjects and animals; settings: exogenously administered angiotensin I, no reference given; cited from earlier work
Source text: CSE was a protein-rich extract and the protein content of CSE was 10.86%. Moreover, the well-known ACE inhibitors are amino acid or dipeptide drugs. Therefore, we proposed that there were bioactive peptides responsible for the anti-hypertensive activities of CSE. Proteomics and bioinformatics analyses were further applied to identify the anti-hypertensive bioactive peptides in CSE. Peptides with anti-hypertensive potentials have been determined from corn. For example, dipeptide Ala-Tyr (AY) has been identified from corn gluten meal, a major byproduct of corn wet milling. AY affects the ACE act ...

[7] = system: ACE; settings: cited from earlier work
Source text: (§4) Food peptides with anti-ACE activities have been identified from plants and animals. For example, oligopeptides FDGIP and AIDPVRA are ACE inhibitor derived from Caulerpa lentillifera. […] Peptides from auto-digested reishi (Ganoderma lingzhi) extract show potent inhibition against ACE and hypotensive activities in SHRs. Lacto-tr ... || CSE was a protein-rich extract and the protein content of CSE was 10.86%. Moreover, the well-known ACE inhibitors are amino acid or dipeptide drugs. Therefore, we proposed that there were bioactive peptides responsible for the anti-hypertensive activities of CSE. Proteomics and bioinformatics analyses were further applied to identify the anti-hypertensive bioactive peptides in CSE. Peptides with anti-hypertensive potentials have been determined from corn. For example, dipeptide Ala-Tyr (AY) has been identified from corn gluten meal, a major byproduct of corn wet milling. AY affects the ACE act ...

[8] = system: SHRs; settings: SHR, cited from earlier work
Source text: as §4

[9] = from Coix glutelin; cited from earlier work
Source text: (§5) Food peptides with anti-ACE activities have been identified from plants and animals. For example, oligopeptides FDGIP and AIDPVRA are ACE inhibitor derived from Caulerpa lentillifera. […] Peptides from auto-digested reishi (Ganoderma lingzhi) extract show potent inhibition against ACE and hypotensive activities in SHRs. Lacto-tr ...

[10] = system: endothelial function; settings: in vitro; cited from earlier work
Source text: as §5

[11] = system: subjects with blood pressure ranging from normal to mild hypertension; settings: intake of tablets containing VPP and IPP; cited from earlier work
Source text: as §5

[12] = intraperitoneal, 10 μmol/kg, tail-cuff, mean ± standard error, n = 6

CC(C)C[C@H](NC(=O)[C@H](CC(N)=O)NC(=O)[C@H](CC(=O)O)NC(=O)[C@H](Cc1ccccc1)NC(=O)[C@H](CCCCN)NC(=O)[C@@H](N)CO)C(=O)N[C@@H](Cc1ccc(O)cc1)C(=O)NCC(=O)N[C@@H](CS)C(=O)N[C@@H](CCCNC(=N)N)C(=O)O [CSBp5] (H-SKFDNLYGCR-OH; N-terminus and C-terminus assumed)
Inhibition of ACE activity, Z-FHL (in words) [1]: inhibited the ACE activity and the inhibition displayed a dose-dependent manner
Changes in diastolic blood pressure (in words) [2]: consistent with the changes in SBP
Domain preference of ACE inhibition (in words) ([3]; H-HL versus Z-FHL hydrolysis): a more effective inhibition on the C-domain of ACE
Inhibition of ACE activity, H-HL (in words) ([3]; mouse serum ACE, H-HL, various concentrations): inhibited the ACE activity and the inhibition displayed a dose-dependent manner
Decrease of SBP, intraperitoneal [4, 12]: 28.33 ± 12.5 mmHg
Decrease of SBP, intraperitoneal (in words) ([4]; intraperitoneal, various dosages, 1 h): decreased SBP levels in a dose-dependent manner
Decrease of SBP, oral ([4]; oral, 10 μmol/kg, 1 h, tail-cuff, mean ± standard error, n = 6): 36.78 ± 13.25 mmHg
Decrease of SBP at 2 h (time course) ([4]; oral, 10 μmol/kg): ~30 mmHg
Duration of SBP decrease (in words) ([4]; oral, 10 μmol/kg, measured at 0, 1, 2, 4 and 6 h): persistent during a 6-h measurement
Decrease of SBP, oral (in words) ([4]; oral, various dosages, 1 h): decreased the SBP levels in a dose-dependent manner

CC(=O)N[C@@H](CC(=O)O)C(=O)N[C@@H](Cc1ccccc1)P(=O)(O)C[C@@H](C)C(=O)N[C@@H](C)C(N)=O [RXP407]
Effect on blood pressure (in words) [5]: no effect on blood pressure

C[C@H](CS)C(=O)N1CCC[C@H]1C(=O)O [captopril]
Decrease of SBP, intraperitoneal [4, 12]: 52.83±19.06 mmHg
Decrease of SBP at 2 h (time course) ([4]; oral, 10 μmol/kg): approximately 60 mmHg
SBP level lower than that of the blank group ([4]; oral, 10 mg/kg, SBP at 0 and 1 h, tail-cuff, mean ± standard error, n = 6): 47.6 ± 4.34 mmHg
Angiotensin I-induced elevation of blood pressure (in words) [6]: attenuated or abolished

AIDPVRA [oligopeptide derived from Caulerpa lentillifera]
ACE inhibition (in words) ([7]; from Caulerpa lentillifera): ACE inhibitor

Ala-Tyr [AY]
Maximal reduction of SBP ([8]; oral, 50 mg/kg, 2 h): 9.5 mmHg
IC50 ([7]; read-out: IC50, ACE): 14.2 µM

FDGIP [oligopeptide derived from Caulerpa lentillifera]
ACE inhibition (in words) ([7]; from Caulerpa lentillifera): ACE inhibitor

GAAGGAF
Antihypertensive effect (in words) [9]: significant antihypertensive effect

Ile-Pro-Pro [IPP, lacto-tripeptide from sour milk]
Anti-hypertensive effect in SHRs (in words) [8]: exhibit anti-hypertensive effects in SHRs
ACE inhibition (in words) ([7]; sour milk peptides): inhibit the ACE activity
Endothelial function (in words) [10]: protect the endothelial function in vitro
Improvement in hypertension and side effects (in words) [11]: mild improvement in hypertension without side effects

Met-Ile/Leu-Pro-Pro [tetrapeptide from hydrolyzed zein]
IC50, ACE in vitro [7]: 70.32 µg/mL
IC50 ([7]; read-out: IC50, ACE in vitro): 155 µM

Val-Pro-Pro [VPP, lacto-tripeptide from sour milk]
Anti-hypertensive effect in SHRs (in words) [8]: exhibit anti-hypertensive effects in SHRs
ACE inhibition (in words) ([7]; sour milk peptides): inhibit the ACE activity
Endothelial function (in words) [10]: protect the endothelial function in vitro
Improvement in hypertension and side effects (in words) [11]: mild improvement in hypertension without side effects
